Measured values taken from patent publication US20220378802A1, “TREATMENT OF ALCOHOLIC HEPATITIS” (Durect Corporation, priority 2019, published 2022).
“Also recorded” adds a separate entry of the source.

Tested on: patients with alcoholic hepatitis
Assay: Safety and tolerability in Phase 2a trial
Format: in vivo, human
Conditions: all AH patients
Procedure: All patients received IV infused 25HC3S (at 30, 90, or 150 mg) on Day 1 and Day 4 (if still hospitalized), and were followed for 28-days. The final enrollment was 19 patients comprised of: 8 patients (4 moderate and 4 severe) dosed at 30 mg, 7 patients (3 moderate and 4 severe) dosed at 90 mg, and 4 patients (4 severe) dosed at 150 mg. • Study Drug A 25HC3S sodium salt solution contained: • 30 mg/mL 25HC3S sodium salt; • 240 mg/mL hydroxypropyl-beta-cyclodextrin; and • 50 mmole phosphate buffer • The 25HC3S sodium salt solution was diluted in 100 mL 5% dextrose or 0.9% sodium chloride infusion solution: • Dose 1: 30 mg of 25HC3S sodium salt in 100 mL 5% dextrose or 0.9% sodium chloride • Dose 2: 90 mg of 25HC3S sodium salt in 100 mL 5% dextrose or 0.9% sodium chloride • Dose 3: 150 mg of 25HC3S sodium salt in 100 mL 5% dextrose or 0.9% sodium chloride • 25HC3S sodium salt was administered by slow intravenous infusion over 2 hrs (50 mL/h) until the entire dose is given at Day 1 and Day 4. If a patient met the hospital discharge criteria prior to the second dose, the patient received only one dose instead of two doses. • Study Procedure The study was conducted in two parts. Part A included patients with MELD scores of 11-20 (moderate AH patients), and Part B included patients with MELD of scores 21-30. The doses of 25HC3S sodium salt administered were 30 mg and 90 mg for Part A and 30 mg, 90 mg and 150 mg for Part B, with 4 patients per dose group per Part (except for only 3 patients in the 90 mg cohort of Part A). All patients were followed to Day 28. • The study started in 4 moderate AH patients (Part A) at 30 mg dose level. After completing the dosing, a Dose Escalation Committee (DEC) reviewed safety, tolerability and pharmacokinetic (PK) data from all 4 patients and determined that it was safe to move forward to dose 4 severe AH patients (Part B) at the same dose level, 30 mg, as well as escalating the dose level to 90 mg in moderate patients (Part A). […]

## C[C@H](CCCC(C)(C)O)[C@H]1CC[C@H]2[C@@H]3CC=C4C[C@@H](OS(=O)(=O)O)CC[C@]4(C)[C@H]3CC[C@]12C [25HC3S, 5-cholesten-3,25-diol, 3-sulfate]
30, 90, 150 mg
  safety / tolerability: safe and well tolerated
  serious adverse events: no drug-related serious adverse events; also recorded: no treatment emergent serious adverse events; also recorded: no serious adverse effects related to 25HC3S
  discontinuations, early withdrawal or termination due to adverse effects: no discontinuations, early withdrawal or termination
